Measured values taken from US6358885B1, “Substituted phenylheterocyclic herbicides” (Mississippi State University, priority 1992, dated 2002).

Legend:
barnyardgrass = test: Test C flood test plant response rating 0 to 100; type: in vivo, Echinochloa crus-galli; conditions: for Plant response rating (0 to 100), Barnyardgrass: under POSTEMERGENCE head (flood test species); for Plant response rating, Barnyardgrass: flood test species listed under POSTEMERGENCE, 0 to 100 scale
From the text: (§1) The compounds evaluated in this test were formulated in a non-phytoxic solvent and applied to the soil surface before plant seedlings emerged (preemergence application), to water that covered the soil surface (flood application), and to plants that were in the one-to-four leaf stage (postemergence application). A sandy loam soil was used for the preemergence and postemergence tests, while a silt loam soil was used in the flood test. Water depth was approximately 2.5 cm for the flood test and was maintained at this level for the duration of the test. Plant species in the preemergence and postemergence tests consisted of barley (Hordeum vulgare), bedstraw (Galium aparine), blackgrass (Alopecurus myosuroides), chickweed (Stellaria media), corn (Zea mays), cotton (Gossypium hirsutum), crabgrass (Digitaria sanguinalis), downy brome (Bromus tectorum), giant foxtail (Setaria faberii), lambsquarters (Chenopodium album), morningglory (Ipomoea hederacea), pigweed ([…]), rape (Brassica napus), ryegrass (Lolium multiflorum), sorghum (Sorghum bicolor), soybean (Glycine max), speedwell (Veronica persica), sugar beet (Beta vulgaris), velvetleaf (Abutilon theophrasti), wheat (Triticum aestivum), wild buckwheat (Polygonum convolvulus), and wild oat (Avena fatua). All plant species were planted one day before application of the compound for the preemergence portion-of this test. Plantings of these species were adjusted to produce plants of appropriate size for the post-emergence portion of the test. […] All plant species were grown using normal greenhouse practices. Visual evaluations of injury expressed on treated plants, when compared to untreated controls, were recorded approximately fourteen to twenty one days after application of the test compound. […] A dash (-) response means no test result.

blackgrass = test: Test C preemergence/postemergence greenhouse plant response rating 0 to 100; type: in vivo, Alopecurus myosuroides; conditions: POSTEMERGENCE; for Plant response rating, Blackgrass: 0 to 100 scale
From the text: as §1

lambsquarters = test: Test B preemergence/postemergence greenhouse plant response rating 0 to 10; type: in vivo, Chenopodium album; conditions: 0 to 10 scale
Summary of the method: (§2)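 Both application timings were run together: seeds got compound preemergence, and established seedlings (two to eighteen cm) got it postemergence. Non-phytotoxic solvent carried the chemical. Ratings are visual, versus controls, at twelve to sixteen days.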

wild oat = test: as above; type: in vivo, Avena fatua; conditions: 0 to 10 scale
Summary of the method: as §2

rice = test: as above; type: in vivo, Oryza sativa; conditions: 0 to 10 scale
Summary of the method: as §2

wild buckwheat [1] = test: as above; type: in vivo, Polygonum convolvulus; conditions: 0 to 10 scale
Summary of the method: as §2

wheat = test: as above; type: in vivo, Triticum aestivum; conditions: 0 to 10 scale
Summary of the method: as §2

wild buckwheat [2] = test: Test C preemergence/postemergence greenhouse plant response rating 0 to 100; type: in vivo, Polygonum convolvulus; conditions: POSTEMERGENCE; for Plant response rating, Wild buckwheat: 0 to 100 scale
From the text: as §1

sugar beet = test: as above; type: in vivo, Beta vulgaris; conditions: POSTEMERGENCE; for Plant response rating, Sugar beet: 0 to 100 scale
From the text: as §1

downy brome = test: as above; type: in vivo, Bromus tectorum; conditions: POSTEMERGENCE; for Plant response rating Downy Brome: 0 to 100 scale
From the text: as §1

sorghum = test: as above; type: in vivo, Sorghum bicolor; conditions: POSTEMERGENCE; for Plant response rating, Sorghum: 0 to 100 scale
From the text: as §1

soybean = test: Test B preemergence/postemergence greenhouse plant response rating 0 to 10; type: in vivo, Glycine max; conditions: 0 to 10 scale
Summary of the method: as §2

## CC(C)OC(=O)COc1cc(-c2nn3c(c2Cl)CCCC3)c(F)cc1Cl [Compound 39]
barnyardgrass; Rate 16 g/ha
  Plant response rating (0 to 100), Barnyardgrass: 50
barnyardgrass; Rate 31 g/ha
  Plant response rating (0 to 100), Barnyardgrass: 80
barnyardgrass; 62 g/ha
  Plant response rating, Barnyardgrass: 90
barnyardgrass; 125 g/ha
  Plant response rating, Barnyardgrass: 95
blackgrass; 62 g/ha
  Plant response rating, Blackgrass: 30
blackgrass; 125 g/ha
  Plant response rating, Blackgrass: 40
blackgrass; Rate 16 g/ha
  Plant response rating (0 to 100), Blackgrass: 10
blackgrass; Rate 31 g/ha
  Plant response rating (0 to 100), Blackgrass: 10
lambsquarters; POSTEMERGENCE, Rate 50 g/ha
  Plant response rating, Lambsquarter: 9
lambsquarters; PREEMERGENCE, Rate 50 g/ha
  Plant response rating, Lambsquarter: 10
lambsquarters; Rate 200 g/ha, POSTEMERGENCE
  Plant response rating, Lambsquarter: 10
lambsquarters; Rate 200 g/ha, PREEMERGENCE
  Plant response rating, Lambsquarter: 10
Wild oat; POSTEMERGENCE, Rate 50 g/ha
  Plant response rating, Wild oat: 3
Wild oat; PREEMERGENCE, Rate 50 g/ha
  Plant response rating, Wild oat: 0
Wild oat; Rate 200 g/ha, POSTEMERGENCE
  Plant response rating, Wild oat: 3
rice; POSTEMERGENCE, Rate 50 g/ha
  Plant response rating, Rice: 4
rice; PREEMERGENCE, Rate 50 g/ha
  Plant response rating, Rice: 0
rice; Rate 200 g/ha, POSTEMERGENCE
  Plant response rating, Rice: 6
rice; Rate 200 g/ha, PREEMERGENCE
  Plant response rating, Rice: 0
Wild buckwheat [1]; POSTEMERGENCE, Rate 50 g/ha
  Plant response rating, Wild buckwheat: 10
Wild buckwheat [1]; PREEMERGENCE, Rate 50 g/ha
  Plant response rating, Wild buckwheat: 10
Wild buckwheat [1]; Rate 200 g/ha, POSTEMERGENCE
  Plant response rating, Wild buckwheat: 10
Wild buckwheat [1]; Rate 200 g/ha, PREEMERGENCE
  Plant response rating, Wild buckwheat: 10
wheat; POSTEMERGENCE, Rate 50 g/ha
  Plant response rating, Wheat: 4
wheat; PREEMERGENCE, Rate 50 g/ha
  Plant response rating, Wheat: 0
wheat; Rate 200 g/ha, POSTEMERGENCE
  Plant response rating, Wheat: 5
wheat; Rate 200 g/ha, PREEMERGENCE
  Plant response rating, Wheat: 0
Wild buckwheat [2]; 62 g/ha
  Plant response rating, Wild buckwheat: 90
Wild buckwheat [2]; 125 g/ha
  Plant response rating, Wild buckwheat: 100
Wild buckwheat [2]; Rate 31 g/ha
  Plant response rating (0 to 100), Wild buckwheat: 70
Sugar beet; 62 g/ha
  Plant response rating, Sugar beet: 100
Sugar beet; 125 g/ha
  Plant response rating, Sugar beet: 100
Sugar beet; Rate 16 g/ha
  Plant response rating (0 to 100), Sugar beet: 100
Sugar beet; Rate 31 g/ha
  Plant response rating (0 to 100), Sugar beet: 100
Downy brome; 62 g/ha
  Plant response rating Downy Brome: 30
Downy brome; 125 g/ha
  Plant response rating Downy Brome: 40
Downy brome; Rate 16 g/ha
  Plant response rating (0 to 100), Downy Brome: 10
Downy brome; Rate 31 g/ha
  Plant response rating (0 to 100), Downy Brome: 20
sorghum; 62 g/ha
  Plant response rating, Sorghum: 50
sorghum; 125 g/ha
  Plant response rating, Sorghum: 60
sorghum; Rate 16 g/ha
  Plant response rating (0 to 100), Sorghum: 20
sorghum; Rate 31 g/ha
  Plant response rating (0 to 100), Sorghum: 30
soybean; POSTEMERGENCE, Rate 50 g/ha
  Plant response rating, Soybean: 2
soybean; PREEMERGENCE, Rate 50 g/ha
  Plant response rating, Soybean: 0
soybean; Rate 200 g/ha, POSTEMERGENCE
  Plant response rating, Soybean: 4
soybean; Rate 200 g/ha, PREEMERGENCE
  Plant response rating, Soybean: 0

## C=C(Cl)COc1cc(-c2nn3c(c2Cl)CCCC3)c(F)cc1Cl [Compound 40]
barnyardgrass; Rate 16 g/ha
  Plant response rating (0 to 100), Barnyardgrass: 100
barnyardgrass; Rate 31 g/ha
  Plant response rating (0 to 100), Barnyardgrass: 100
barnyardgrass; 62 g/ha
  Plant response rating, Barnyardgrass: 100
barnyardgrass; 125 g/ha
  Plant response rating, Barnyardgrass: 100
blackgrass; 62 g/ha
  Plant response rating, Blackgrass: 50
blackgrass; 125 g/ha
  Plant response rating, Blackgrass: 70
blackgrass; Rate 16 g/ha
  Plant response rating (0 to 100), Blackgrass: 20
blackgrass; Rate 31 g/ha
  Plant response rating (0 to 100), Blackgrass: 30
lambsquarters; POSTEMERGENCE, Rate 50 g/ha
  Plant response rating, Lambsquarter: 9
lambsquarters; PREEMERGENCE, Rate 50 g/ha
  Plant response rating, Lambsquarter: 10
lambsquarters; Rate 200 g/ha, POSTEMERGENCE
  Plant response rating, Lambsquarter: 10
lambsquarters; Rate 200 g/ha, PREEMERGENCE
  Plant response rating, Lambsquarter: 10
Wild oat; POSTEMERGENCE, Rate 50 g/ha
  Plant response rating, Wild oat: 4
Wild oat; PREEMERGENCE, Rate 50 g/ha
  Plant response rating, Wild oat: 0
Wild oat; Rate 200 g/ha, POSTEMERGENCE
  Plant response rating, Wild oat: 5
rice; POSTEMERGENCE, Rate 50 g/ha
  Plant response rating, Rice: 5
rice; PREEMERGENCE, Rate 50 g/ha
  Plant response rating, Rice: 0
rice; Rate 200 g/ha, POSTEMERGENCE
  Plant response rating, Rice: 5
rice; Rate 200 g/ha, PREEMERGENCE
  Plant response rating, Rice: 0
Wild buckwheat [1]; POSTEMERGENCE, Rate 50 g/ha
  Plant response rating, Wild buckwheat: 9
Wild buckwheat [1]; Rate 200 g/ha, POSTEMERGENCE
  Plant response rating, Wild buckwheat: 10
Wild buckwheat [1]; Rate 200 g/ha, PREEMERGENCE
  Plant response rating, Wild buckwheat: 9
wheat; POSTEMERGENCE, Rate 50 g/ha
  Plant response rating, Wheat: 4
wheat; PREEMERGENCE, Rate 50 g/ha
  Plant response rating, Wheat: 0
wheat; Rate 200 g/ha, POSTEMERGENCE
  Plant response rating, Wheat: 6
wheat; Rate 200 g/ha, PREEMERGENCE
  Plant response rating, Wheat: 2
Wild buckwheat [2]; 62 g/ha
  Plant response rating, Wild buckwheat: 100
Wild buckwheat [2]; 125 g/ha
  Plant response rating, Wild buckwheat: 100
Wild buckwheat [2]; Rate 16 g/ha
  Plant response rating (0 to 100), Wild buckwheat: 50
Wild buckwheat [2]; Rate 31 g/ha
  Plant response rating (0 to 100), Wild buckwheat: 50
Sugar beet; 62 g/ha
  Plant response rating, Sugar beet: 100
Sugar beet; 125 g/ha
  Plant response rating, Sugar beet: 100
Sugar beet; Rate 16 g/ha
  Plant response rating (0 to 100), Sugar beet: 100
Sugar beet; Rate 31 g/ha
  Plant response rating (0 to 100), Sugar beet: 100
Downy brome; 62 g/ha
  Plant response rating Downy Brome: 50
Downy brome; 125 g/ha
  Plant response rating Downy Brome: 60
Downy brome; Rate 16 g/ha
  Plant response rating (0 to 100), Downy Brome: 30
Downy brome; Rate 31 g/ha
  Plant response rating (0 to 100), Downy Brome: 40
sorghum; 62 g/ha
  Plant response rating, Sorghum: 30
sorghum; 125 g/ha
  Plant response rating, Sorghum: 50
sorghum; Rate 16 g/ha
  Plant response rating (0 to 100), Sorghum: 20
sorghum; Rate 31 g/ha
  Plant response rating (0 to 100), Sorghum: 20
soybean; POSTEMERGENCE, Rate 50 g/ha
  Plant response rating, Soybean: 5
soybean; PREEMERGENCE, Rate 50 g/ha
  Plant response rating, Soybean: 0
soybean; Rate 200 g/ha, POSTEMERGENCE
  Plant response rating, Soybean: 8
soybean; Rate 200 g/ha, PREEMERGENCE
  Plant response rating, Soybean: 2
